In US20090192308A1, “1,5-DIHYDRO-2H-PYRROL-2-ONE TRICYCLIC DERIVATIVES HAVING ANTI-INFECTIVE ACTIVITY” (CPC BIOTECH S. r.l., priority 2008, published 2009):
Converted amounts (≈) assume the structure as drawn. “Also recorded” adds a separate entry of the source.

Assays:
Candida albicans = experiment: agar spot / disk diffusion plate method; format: cell-based; conditions: spot 10 μl, inoculum 10^8 CFU/ml, (Io) and (Ir) 100 mM, average of three points
Protocol: (§1) The antimicrobial activity of the substances (Ii), (Il), (Im), (In), (Io), (Ip), (Iq), (Ir), (Is) was evaluated towards 11 clinically isolated Gram-negative and Gram-positive bacterial strains, mostly multi-antibiotic resistant (MDR), and towards two types of yeast of the genus Candida.
(§2) A plate method was used (agar spot method or disk diffusion assay—spot quantity 10 μl, bacterial inoculum 10^8 CFU/ml and DMSO negative control): the (Io) and (Ir) concentration used was 100 mM. The antimicrobial activity was evaluated by measuring the diameter of the microbial growth inhibition halo expressed in millimetres, the reported values being the average of three experimental points.

Salmonella spp. = experiment: agar spot / disk diffusion plate method; format: cell-based; conditions: spot 10 μl, inoculum 10^8 CFU/ml, (Io) and (Ir) 100 mM, average of three points
Protocol: as §1, §2

Candida parapsilosis = experiment: agar spot / disk diffusion plate method; format: cell-based; conditions: spot 10 μl, inoculum 10^8 CFU/ml, (Io) and (Ir) 100 mM, average of three points
Protocol: as §1, §2

[1] = test system: Acinetobacter baumannii MDR; experiment: agar spot / disk diffusion plate method; format: cell-based; conditions: spot 10 μl, inoculum 10^8 CFU/ml, (Io) and (Ir) 100 mM, average of three points
Protocol: as §1, §2

[2] = test system: Staphylococcus aureus MRSA; experiment: agar spot / disk diffusion plate method; format: cell-based; conditions: spot 10 μl, inoculum 10^8 CFU/ml, (Io) and (Ir) 100 mM, average of three points
Protocol: as §1, §2

[3] = test system: Pseudomonas aeruginosa MDR; experiment: agar spot / disk diffusion plate method; format: cell-based; conditions: spot 10 μl, inoculum 10^8 CFU/ml, (Io) and (Ir) 100 mM, average of three points
Protocol: as §1, §2

[4] = test system: Staphylococcus haemolyticus MDR; experiment: agar spot / disk diffusion plate method; format: cell-based; conditions: spot 10 μl, inoculum 10^8 CFU/ml, (Io) and (Ir) 100 mM, average of three points
Protocol: as §1, §2

Escherichia coli = experiment: agar spot / disk diffusion plate method; format: cell-based; conditions: spot 10 μl, inoculum 10^8 CFU/ml, (Io) and (Ir) 100 mM, average of three points
Protocol: as §1, §2

[5] = in vivo biological studies, cited from earlier work
[6] = compared with taurine and hypotaurine; cited from earlier work
[7] = test system: 11 clinically isolated Gram-negative and Gram-positive bacterial strains, mostly MDR, and two types of yeast of the genus Candida; experiment: antimicrobial activity towards clinical isolates and yeasts (overall); format: cell-based; conditions: pathogens resistant to β-lactam antibiotics or multi-drug resistant, and yeasts
Protocol: as §1, §2

Klebsiella oxytoca = experiment: agar spot / disk diffusion plate method; format: cell-based; conditions: spot 10 μl, inoculum 10^8 CFU/ml, (Io) and (Ir) 100 mM, average of three points
Protocol: as §1, §2

Serratia marcescens = experiment: agar spot / disk diffusion plate method; format: cell-based; conditions: spot 10 μl, inoculum 10^8 CFU/ml, (Io) and (Ir) 100 mM, average of three points
Protocol: as §1, §2

Enterococcus faecium MDR = experiment: agar spot / disk diffusion plate method; format: cell-based; conditions: spot 10 μl, inoculum 10^8 CFU/ml, (Io) and (Ir) 100 mM, average of three points
Protocol: as §1, §2

Klebsiella pneumonite = experiment: agar spot / disk diffusion plate method; format: cell-based; conditions: spot 10 μl, inoculum 10^8 CFU/ml, (Io) and (Ir) 100 mM, average of three points
Protocol: as §1, §2

[8] = test system: Enterococcus faecalis MDR; experiment: agar spot / disk diffusion plate method; format: cell-based; conditions: spot 10 μl, inoculum 10^8 CFU/ml, (Io) and (Ir) 100 mM, average of three points
Protocol: as §1, §2

[9] = test system: methicillin-resistant Staphylococcus aureus strain (MRSA); experiment: MIC by microdilutions in broth; format: cell-based
Protocol: The minimum inhibitory concentration (MIC) of the substances (Io) and (Ir) towards the methicillin-resistant Staphylococcus aureus strain (MRSA) was then evaluated by the method of microdilutions in broth: it should be noted that Staphylococcus aureus (MRSA) is one of the main multi-resistant bacteria causing serious problems in hospitals. The measured MICs were 6.25 mmol/l and 1.56 mmol/l for (Io) and (Ir) respectively.

Q: Which “diameter of the microbial growth inhibition halo” value (Candida albicans) does the source give for O=C1C2=C(SCCN2)C2CSCCN12 (stereo not drawn) [Ia, 3,4,7,8,10,10a-hexahydro-2H,5H-pyrrolo[2,1-c:3,4-b′]bis[1,4]thiazin-5-one, reference compound] here?
A: Its value is 6 millimetres.

Q: What about the “diameter of the microbial growth inhibition halo” value (Salmonella spp.) of the same compound?
A: The value was 3 millimetres.

Q: And the “diameter of the microbial growth inhibition halo” value (Candida parapsilosis)?
A: The value was 5 millimetres.

Q: And the “diameter of the microbial growth inhibition halo” value [1]?
A: The value was 4 millimetres.

Q: What about the “diameter of the microbial growth inhibition halo” value [2] of the same compound?
A: The value was 4 millimetres.

Q: What about the “diameter of the microbial growth inhibition halo” value [3] of the same compound?
A: Its value is <2 millimetres.

Q: And the “diameter of the microbial growth inhibition halo” value [4]?
A: The value was <2 millimetres.

Q: What about the “diameter of the microbial growth inhibition halo” value (Escherichia coli) of the same compound?
A: The value was <2 millimetres.

Q: And the “antioxidant properties in vivo (in words)” value [5]?
A: The value was “considerable antioxidant properties”.

Q: And the “toxicity in vivo (in words)” value ([5]; high doses)?
A: The value was “total non-toxicity even at high doses”.

Q: What about the “antioxidant activity (in words)” value [6] of the same compound?
A: The value was “strong antioxidant activity”.

Q: For CN1CCSC2=C1C(=O)N1CCSCC21 (stereo not drawn) [Ii], which “antibiotic activity (in words)” value [7] is on record?
A: Its value is “have shown antibiotic activity”.

Q: With CCN1CCSC2=C1C(=O)N1CCSCC21 (stereo not drawn) [Il] as the compound, how does the “antibiotic activity (in words)” value [7] read?
A: The value was “have shown antibiotic activity”.

Q: With CCCN1CCSC2=C1C(=O)N1CCSCC21 (stereo not drawn) [Im] as the compound, how does the “antibiotic activity (in words)” value [7] read?
A: The value was “have shown antibiotic activity”.

Q: Which “antibiotic activity (in words)” value [7] does the source give for CC(C)N1CCSC2=C1C(=O)N1CCSCC21 (stereo not drawn) [In] here?
A: The value was “have shown antibiotic activity”.

Q: With CC(C)=CCN1CCSC2=C1C(=O)N1CCSCC21 (stereo not drawn) [Io] as the compound, how does the “diameter of the microbial growth inhibition halo” value (Klebsiella oxytoca) read?
A: Its value is 8.6 millimetres.

Q: And the “diameter of the microbial growth inhibition halo” value (Serratia marcescens)?
A: The value was 7 millimetres.

Q: And the “diameter of the microbial growth inhibition halo” value (Candida albicans)?
A: The value was 10 millimetres.

Q: And the “diameter of the microbial growth inhibition halo” value (Salmonella spp.)?
A: Its value is 10 millimetres.

Q: And the “diameter of the microbial growth inhibition halo” value (Candida parapsilosis)?
A: The value was 8 millimetres.

Q: And the “diameter of the microbial growth inhibition halo” value [1]?
A: The value was 11 millimetres.

Q: What about the “diameter of the microbial growth inhibition halo” value [2] of the same compound?
A: Its value is 11.4 millimetres.

Q: What about the “diameter of the microbial growth inhibition halo” value [3] of the same compound?
A: Its value is 11 millimetres.

Q: What about the “diameter of the microbial growth inhibition halo” value (Enterococcus faecium MDR) of the same compound?
A: The value was 8 millimetres.

Q: And the “diameter of the microbial growth inhibition halo” value (Klebsiella pneumonite)?
A: Its value is 10 millimetres.

Q: What about the “diameter of the microbial growth inhibition halo” value [4] of the same compound?
A: The value was 13 millimetres.

Q: What about the “diameter of the microbial growth inhibition halo” value (Escherichia coli) of the same compound?
A: The value was 12 millimetres.

Q: And the “diameter of the microbial growth inhibition halo” value [8]?
A: The value was 9 millimetres.

Q: What about the “minimum inhibitory concentration (MIC)” value [9] of the same compound?
A: Its value is 6.25 mM (≈ 1850 µg/mL).

Q: What about the “antibiotic activity (in words)” value [7] of the same compound?
A: Its value is “have shown antibiotic activity”.

Q: For O=C1C2=C(SCCN2Cc2ccccc2)C2CSCCN12 (stereo not drawn) [Ip], which “antibiotic activity (in words)” value [7] is on record?
A: Its value is “have shown antibiotic activity”.

Q: Which “antibiotic activity (in words)” value [7] does the source give for O=C1C2=C(SCCN2CCc2ccccc2)C2CSCCN12 (stereo not drawn) [Iq] here?
A: The value was “have shown antibiotic activity”.

Q: With CC(C)=CCC/C(C)=C/CN1CCSC2=C1C(=O)N1CCSCC21 (stereo not drawn) [Ir] as the compound, how does the “diameter of the microbial growth inhibition halo” value (Klebsiella oxytoca) read?
A: The value was 9.8 millimetres.

Q: And the “diameter of the microbial growth inhibition halo” value (Serratia marcescens)?
A: The value was 11 millimetres.

Q: And the “diameter of the microbial growth inhibition halo” value (Candida albicans)?
A: The value was 13 millimetres.

Q: What about the “diameter of the microbial growth inhibition halo” value (Salmonella spp.) of the same compound?
A: Its value is 11 millimetres.

Q: And the “diameter of the microbial growth inhibition halo” value (Candida parapsilosis)?
A: The value was 9.8 millimetres.

Q: What about the “diameter of the microbial growth inhibition halo” value [1] of the same compound?
A: The value was 13 millimetres.

Q: And the “diameter of the microbial growth inhibition halo” value [2]?
A: Its value is 18.6 millimetres.

Q: What about the “diameter of the microbial growth inhibition halo” value [3] of the same compound?
A: The value was 12 millimetres.

Q: And the “diameter of the microbial growth inhibition halo” value (Enterococcus faecium MDR)?
A: Its value is 14.3 millimetres.

Q: And the “diameter of the microbial growth inhibition halo” value (Klebsiella pneumonite)?
A: The value was 11.5 millimetres.

Q: What about the “diameter of the microbial growth inhibition halo” value [4] of the same compound?
A: The value was 15 millimetres.

Q: What about the “diameter of the microbial growth inhibition halo” value (Escherichia coli) of the same compound?
A: Its value is 12 millimetres.

Q: What about the “diameter of the microbial growth inhibition halo” value [8] of the same compound?
A: The value was 13.7 millimetres.

Q: And the “minimum inhibitory concentration (MIC)” value [9]?
A: The value was 1.56 mM (≈ 569 µg/mL).

Q: What about the “antibiotic activity (in words)” value [7] of the same compound?
A: The value was “have shown antibiotic activity; also recorded: best activity characteristics for the widest spectrum; also recorded: excellent wide spectrum antibiotic activity”.

Q: With O=C1C2=C(SCCN2c2ccc(-c3ccccc3)cc2)C2CSCCN12 (stereo not drawn) [Is] as the compound, how does the “antibiotic activity (in words)” value [7] read?
A: The value was “have shown antibiotic activity”.
